Data taken from patent US10669258B2, “3-sulfonyl-5-aminopyridine-2,4-diol APJ agonists” (BRISTOL-MYERS SQUIBB COMPANY, priority 2016, dated 2020).
Where two headings read alike, the source gives them in different places.

Molecular target: T1, human APJ receptor (Homo sapiens, UniProt P35414)
T1 construct: expressed in transfected cells; host or cells: HEK293
T1 sequence (P35414 1-380): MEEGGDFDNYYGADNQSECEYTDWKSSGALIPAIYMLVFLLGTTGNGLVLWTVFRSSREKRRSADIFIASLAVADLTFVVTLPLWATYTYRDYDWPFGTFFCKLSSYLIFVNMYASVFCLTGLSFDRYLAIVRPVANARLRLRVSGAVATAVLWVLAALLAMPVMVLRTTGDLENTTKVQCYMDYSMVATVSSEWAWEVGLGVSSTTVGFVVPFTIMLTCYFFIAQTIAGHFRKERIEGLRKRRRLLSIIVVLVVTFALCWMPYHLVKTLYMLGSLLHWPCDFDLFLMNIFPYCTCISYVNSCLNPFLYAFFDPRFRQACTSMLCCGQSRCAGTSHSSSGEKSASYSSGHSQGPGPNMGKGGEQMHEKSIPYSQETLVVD
Experiment: Intracellular cAMP accumulation assay (APJ hcAMP, HTRF)
Format: cell-based
Details: HEK293 cells stably expressing human APJ receptor, inhibition of forskolin-mediated cAMP production
Description: Intracellular cAMP Accumulation Assay
HEK293 cells stably expressing human APJ receptor were used to assess the activity of compounds. Cultured cells were detached and resuspended in the cAMP Homogeneous Time-Resolved Fluorescence (HTRF) assay buffer (Cisbio cat; #62AM4PEJ). The assay was performed in 384-well assay plates (Perkin-Elmer; cat #6008289) according to assay protocol provided by the manufacturer. Serial dilutions of a compound together with assay buffer containing […] IBMX and 2 μM forskolin were added to each well containing 5,000 cells and incubated for 30 minutes at room temperature. Subsequently, cAMP D2 reagent was added in the lysis buffer followed by the EuK antibody (Cisbio; cat #62AM4PEJ) and incubated for 60 min. The fluorescence emission ratio was measured using fluorometer. The intracellular cAMP concentrations (compound-stimulated inhibition of forskolin-mediated cAMP production) were calculated by extrapolation from a standard curve using known cAMP concentrations. The EC50 values were obtained by fitting the data to a sigmoidal concentration-response curve with variable slope. The maximal achievable inhibition of forskolin-induced cAMP levels (Ymax) for each compound was expressed as relative percentage of inhibition attained using pyroglutamated apelin-13 ((Pyr1)apelin-13) peptide, which was set to 100%.
The examples disclosed below were tested in the APJ in vitro assays described above and were found having human APJ cyclic AMP (hcAMP) activity. The EC50 value of each compound is presented at the end of the example description.
The biological activity of the exemplified compounds of this invention determined by the assay described above is shown at the end of each example.

[1] = Table 1, read-out: hAPJ cAMP EC50 Potency range
[2] = hAPJ cAMP EC50 Potency range, Table 1

SMILES | EC50 [1] | other results
CCCCc1nc(O)c(C(=O)N2CCC(c3ccc(Cl)cn3)C2)c(O)c1N(CC)c1ccccc1 (centres unmarked) [Example 067, (6-butyl-5-(ethyl(phenyl)amino)-2,4-dihydroxypyridin-3-yl)(3-(5-chloropyridin-2-yl)pyrrolidin-1-yl)methanone] |  | EC50 [2]: 0.01 to 10 nM
CCN(c1ccccc1)c1c(CC2CC2)nc(O)c(C(=O)N2CCC(c3ncc(F)cc3F)C2)c1O (centres unmarked) [Example 053, (6-(cyclopropylmethyl)-5-(ethyl(phenyl)amino)-2,4-dihydroxypyridin-3-yl)(3-(3,5-difluoropyridin-2-yl)pyrrolidin-1-yl)methanone] |  | EC50 [2]: 10 to 100 nM
CCCCc1nc(O)c(S(=O)(=O)c2ccc(-c3ccc(F)nc3C)cc2)c(O)c1N1CCCOc2ccccc21 [Example 115, 6-butyl-5-(3,4-dihydrobenzo[b][1,4]oxazepin-5(2H)-yl)-3-((4-(6-fluoro-2-methylpyridin-3-yl)phenyl)sulfonyl)pyridine-2,4-diol] | 10 to 100 nM | 
CCCCc1nc(O)c(S(=O)(=O)c2ccc(-c3ccc(F)nc3)cc2)c(O)c1N(CC)c1ccccc1 [Example 002, 6-butyl-5-(ethyl(phenyl)amino)-3-((4-(6-fluoropyridin-3-yl)phenyl)sulfonyl)pyridine-2,4-diol] |  | EC50 (read-out: Human APJ cAMP Potency range): 0.01 to 10 nM
CCCCc1nc(O)c(S(=O)(=O)c2ccc(-c3cccnc3C)cc2)c(O)c1N(C)c1cccc(Cl)c1 [Example 102, 6-butyl-5-((3-chlorophenyl)(methyl)amino)-3-((4-(2-methylpyridin-3-yl)phenyl)sulfonyl)pyridine-2,4-diol] | 10 to 100 nM | 
CCCCc1nc(O)c(S(=O)(=O)c2ccc(C3CC3)cc2)c(O)c1N(C)c1ccc(C)cc1 [Example 100, 6-butyl-3-((4-cyclopropylphenyl)sulfonyl)-5-(methyl(p-tolyl)amino)pyridine-2,4-diol] | 10 to 100 nM | 
CCCCc1nc(O)c(S(=O)(=O)c2ccc(-c3ccccc3C(=O)N(C)C)cc2)c(O)c1N1CCCOc2ccccc21 [Example 142, 4′-((6-butyl-5-(3,4-dihydrobenzo[b][1,4]oxazepin-5(2H)-yl)-2,4-dihydroxypyridin-3-yl)sulfonyl)-N,N-dimethyl-[1,1′-biphenyl]-2-carboxamide] | 10 to 100 nM | 
CCCCc1nc(O)c(S(=O)(=O)c2ccc(-c3ccc(F)nc3C)cc2)c(O)c1N1CCCCc2ccccc21 [Example 177, 6-butyl-3-((4-(6-fluoro-2-methylpyridin-3-yl)phenyl)sulfonyl)-5-(2,3,4,5-tetrahydro-1H-benzo[b]azepin-1-yl)pyridine-2,4-diol] | 10 to 100 nM | 
CCCCc1nc(O)c(C(=O)N2CCN(Cc3cccc(Cl)c3Cl)CC2)c(O)c1N(CC)c1ccccc1 [Example 074, (6-butyl-5-(ethyl(phenyl)amino)-2,4-dihydroxypyridin-3-yl)(4-(2,3-dichlorobenzyl)piperazin-1-yl)methanone] |  | EC50 [2]: 10 to 100 nM
CCCCc1nc(O)c(C(=O)N2CC[C@H](c3ccccc3)C2)c(O)c1N1CCc2ccccc21 [Example 009, (R)-(6-butyl-2,4-dihydroxy-5-(indolin-1-yl)pyridin-3-yl)(3-phenylpyrrolidin-1-yl)methanone] |  | EC50 [2]: 10 to 100 nM
CCCCc1nc(O)c(S(=O)(=O)c2ccc(-c3cccnc3C)cc2)c(O)c1N(C)c1ccc(OC)cc1 [Example 035, 6-butyl-5-((4-methoxyphenyl)(methyl)amino)-3-((4-(2-methylpyridin-3-yl)phenyl)sulfonyl)pyridine-2,4-diol] | 10 to 100 nM | 

Continued, in another order:

EC50 [1] | SMILES | other results
0.01 to 10 nM | CCCCc1nc(O)c(S(=O)(=O)c2ccc(-c3cccnc3C)cc2)c(O)c1N(c1ccccc1)C(C)C [Example 025, 6-butyl-5-(isopropyl(phenyl)amino)-3-((4-(2-methylpyridin-3-yl)phenyl)sulfonyl)pyridine-2,4-diol] | 
0.01 to 10 nM | CCN(c1cccc(C#N)c1)c1c(-c2ccn(C)n2)nc(O)c(S(=O)(=O)c2ccc(-c3ccncc3C)cc2)c1O [Example 212, 3-((4,6-dihydroxy-2-(1-methyl-1H-pyrazol-3-yl)-5-((4-(3-methylpyridin-4-yl)phenyl)sulfonyl)pyri-din-3-yl)(ethyl)amino)benzonitrile] | 
10 to 100 nM | CCCCc1nc(O)c(S(=O)(=O)c2ccc(-c3cccnc3C)cc2)c(O)c1N(C)c1ccc(C)cc1 [Example 097, 6-butyl-5-(methyl(p-tolyl)amino)-3-((4-(2-methylpyridin-3-yl)phenyl)sulfonyl)pyridine-2,4-diol] | 
0.01 to 10 nM | CCN(c1ccccc1)c1c(-c2cccc(C)c2)nc(O)c(S(=O)(=O)c2ccc(-c3ccc(F)nc3C)cc2)c1O [Example 114, 5-(ethyl(phenyl)amino)-3-((4-(6-fluoro-2-methylpyridin-3-yl)phenyl)sulfonyl)-6-(m-tolyl)pyridine-2,4-diol] | 
0.01 to 10 nM | CCCCc1nc(O)c(S(=O)(=O)c2ccc(-c3ccncc3C)cc2)c(O)c1N(C)c1ccccc1F [Example 112, 6-butyl-5-((2-fluorophenyl)(methyl)amino)-3-((4-(3-methylpyridin-4-yl)phenyl)sulfonyl)pyridine-2,4-diol] | 
0.01 to 10 nM | CNC(=O)c1cccc(-c2ccc(S(=O)(=O)c3c(O)nc(-c4ccn(C)n4)c(N(c4ccccc4)C(C)C)c3O)cc2)c1 [Example 163, 4′-((2,4-dihydroxy-5-(isopropyl(phen-yl)amino)-6-(1-methyl-1H-pyrazol-3-yl)pyridin-3-yl)sulfonyl)-N-methyl-[1,1′-biphenyl]-3-carboxamide] | 
10 to 100 nM | CCCCc1nc(O)c(S(=O)(=O)c2ccc(-c3ccccc3C(=O)N(C)C)cc2)c(O)c1N1CCCCc2ccccc21 [Example 179, 4′-((6-butyl-2,4-dihydroxy-5-(2,3,4,5-tetrahydro-1H-benzo[b]azepin-1-yl)pyridin-3-yl)sulfonyl)-N,N-dimethyl-[1,1′-biphenyl]-2-carboxamide] | 
10 to 100 nM | CCCCc1nc(O)c(S(=O)(=O)c2ccc(Br)cc2)c(O)c1N(C)c1ccccc1 [Example 010, 3-((4-bromophenyl)sulfonyl)-6-butyl-5-(methyl(phenyl)amino)pyridine-2,4-diol] | 
0.01 to 10 nM | CC(C)N(c1ccccc1)c1c(-c2ccn(C)n2)nc(O)c(S(=O)(=O)c2ccc(-c3ccc(F)cc3C(N)=O)cc2)c1O [Example 161, 4′-((2,4-dihydroxy-5-(isopropyl(phenyl)amino)-6-(1-methyl-1H-pyrazol-3-yl)pyridin-3-yl)sulfonyl)-4-fluoro-[1,1′-biphenyl]-2-carboxamide] | 
0.01 to 10 nM | CCCCc1nc(O)c(S(=O)(=O)c2ccc(-c3ccc(F)nc3C)cc2)c(O)c1N(C)c1cccc(C#N)c1 [Example 117, 3-((2-butyl-5-((4-(6-fluoro-2-methylpyridin-3-yl)phenyl)sulfonyl)-4,6-dihydroxypyridin-3-yl)(methyl)amino)benzonitrile] | 
0.01 to 10 nM | CCCCc1nc(O)c(S(=O)(=O)c2ccc(-c3ccccc3C(N)=O)cc2)c(O)c1N1CCCc2ccccc21 [Example 057, 4′-((6-butyl-5-(3,4-dihydroquinolin-1(2H)-yl)-2,4-dihydroxypyridin-3-yl)sulfonyl)-[1,1′-biphenyl]-2-carboxamide] | 
0.01 to 10 nM | CCN(c1cccc(C#N)c1)c1c(-c2ccn(C)n2)nc(O)c(S(=O)(=O)c2ccc(-c3ccnc(F)c3C)cc2)c1O [Example 211, 3-(ethyl(5-((4-(2-fluoro-3-methylpyridin-4-yl)phenyl)sulfonyl)-4,6-dihydroxy-2-(1-methyl-1H-pyrazol-3-yl)pyridin-3-yl)amino)benzonitrile] | 
0.01 to 10 nM | CCN(c1ccccc1)c1c(-c2ccn(C)n2)nc(O)c(S(=O)(=O)c2ccc(-c3ccccc3C(N)=O)cc2)c1O [Example 148, 4′-((5-(ethyl(phenyl)amino)-2,4-dihydroxy-6-(1-methyl-1H-pyrazol-3-yl)pyridin-3-yl)sulfonyl)-[1,1′-biphenyl]-2-carboxamide] | 
0.01 to 10 nM | CCCCc1nc(O)c(S(=O)(=O)c2ccc(-c3ccccc3C(=O)NC)cc2)c(O)c1N(C)c1ccccc1F [Example 176, 4′-((6-butyl-5-((2-fluorophenyl)(methyl)a-mino)-2,4-dihydroxypyridin-3-yl)sulfonyl)-N-methyl-[1,1′-biphenyl]-2-carboxamide] | 
0.01 to 10 nM | CC(C)N(c1ccccc1)c1c(-c2ccn(C)n2)nc(O)c(S(=O)(=O)c2ccc(-c3ccccc3C(N)=O)cc2)c1O [Example 166, 4′-((2,4-dihydroxy-5-(isopropyl(phen-yl)amino)-6-(1-methyl-1H-pyrazol-3-yl)pyridin-3-yl)sulfonyl)-[1,1′-biphenyl]-2-carboxamide] | 
